The target of one data set is T1, visual cycle isomerase (Bos taurus, UniProt Q28175).
T1 construct: Bovine Retinal Pigment Epithelium (RPE) microsome membranes were the source of a visual cycle isomerase; from tissue; host or cells: bovine retinal pigment epithelium microsome membranes; CRALBP made in E. coli
T1 sequence (Q28175 2-533 limits assumed): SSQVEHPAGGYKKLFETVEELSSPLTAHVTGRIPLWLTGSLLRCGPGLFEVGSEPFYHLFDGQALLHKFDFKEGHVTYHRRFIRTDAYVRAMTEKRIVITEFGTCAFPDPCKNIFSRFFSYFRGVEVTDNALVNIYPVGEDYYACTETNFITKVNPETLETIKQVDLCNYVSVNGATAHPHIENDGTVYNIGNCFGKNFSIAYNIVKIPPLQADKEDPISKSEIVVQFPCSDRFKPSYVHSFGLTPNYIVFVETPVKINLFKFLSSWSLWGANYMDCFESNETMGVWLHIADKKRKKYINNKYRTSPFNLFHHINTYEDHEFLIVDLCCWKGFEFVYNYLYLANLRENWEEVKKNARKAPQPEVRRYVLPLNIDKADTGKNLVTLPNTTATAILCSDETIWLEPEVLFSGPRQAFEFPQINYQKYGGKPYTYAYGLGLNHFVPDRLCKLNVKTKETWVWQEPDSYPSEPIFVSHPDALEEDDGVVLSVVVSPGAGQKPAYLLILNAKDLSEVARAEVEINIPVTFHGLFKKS
As to the kind of experiment: In vitro isomerase inhibition assay, bovine RPE microsome membranes. It counts as biochemical. The settings on record: inhibition of 11-cis retinol formation; values given as ranges. How it is done: The capability of amine derivative compounds to inhibit the activity of a visual cycle isomerase was determined
Isomerase inhibition reactions were performed essentially as described (Stecher et al., J. Biol. Chem. 274:8577-85 (1999); see also Golczak et al., Proc. Natl. Acad. Sci. USA 102:8162-67 (2005)). Bovine Retinal Pigment Epithelium (RPE) microsome membranes were the source of a visual cycle isomerase.
Bovine RPE microsome membrane extracts were prepared according to methods described (Golczak et al., Proc. Natl. Acad. Sci. USA 102:8162-67 (2005)) and stored at −80° C. Crude RPE microsome extracts were thawed in a 37° C. water bath, and then immediately placed on ice. 50 ml crude RPE microsomes were placed into a 50 ml Teflon-glass homogenizer (Fisher Scientific, catalog no. 0841416M) on ice, powered by a hand-held DeWalt drill, and homogenized ten times upand down on ice under maximum speed. This process was repeated until the crude RPE microsome solution was homogenized. The homogenate was then subjected to centrifugation (50.2 Ti rotor (Beckman, Fullerton, Calif.), 13,000 RPM; 15360 Rcf) for 15 minutes at 4° C. The supernatant was collected and subjected to centrifugation at 42,000 RPM (160,000 Rcf; 50.2 Ti rotor) for 1 hour at 4° C. The supernatant was removed, and the pellets were suspended in 12 ml (final volume) cold 10 mM MOPS buffer, pH 7.0. The resuspended RPE membranes in 5 ml aliquots were homogenized in a glass-to-glass homogenizer (Fisher Scientific, catalog no.K885500-0021) to high homogeneity. Protein concentration was quantified using the BCA protein assay according to the manufacturer's protocol (Pierce, Rockford, Ill.). The homogenized RPE preparations were stored at −80° C.
Recombinant human apo cellular retinaldehyde-binding protein (CRALBP) was cloned and expressed according to standard methods in the molecular biology art (see Crabb et al., Protein Science 7:746-57 (1998); Crabb et al., J. Biol. Chem. 263:18688-92 (1988)). Briefly, total RNA was prepared from confluent ARPE^19 cells (American Type Culture Collection, Manassas, Va.), cDNA was synthesized using an oligo(dT)12-18 primer, and then DNA encoding CRALBP was amplified by two sequential polymerase chain reactions (see Crabb et al., J. Biol. Chem. 263:18688-92 (1988); Intres, et al., J. Biol. Chem. 269:25411-18 (1994); GenBank Accession No. L34219.1). The PCR product was sub-cloned into pTrcHis2-TOPO TA vector according to the manufacturer's protocol (Invitrogen Inc., Carlsbad, Calif.; catalog no. K4400-01), and then the sequence was confirmed according to standard nucleotide sequencing techniques. Recombinant 6×His-tagged human CRALBP was expressed in One Shot TOP 10 chemically competent E. coli cells (Invitrogen), and the recombinant polypeptide was isolated from E. coli cell lysates by nickel affinity chromatography using nickel (Ni) Sepharose XK16-20 columns for HPLC (Amersham Bioscience, Pittsburgh, Pa.; catalog no.17-5268-O2). The purified 6×His-tagged human CRALBP was dialyzed against 10 mM bis-tris-Propane (BTP) and analyzed by SDS-PAGE. The molecular weight of the recombinant human CRALBP was approximately 39 kDal.
Amine derivative compounds and control compounds were reconstituted in ethanol to 0.1 M. Ten-fold serial dilutions (10^−2, 10^−3, 10^−4, 10^−5, 10^−6 M) in ethanol of each compound were prepared for analysis in the isomerase assay.
The isomerase assay was performed in 10 mM bis-tris-propane (BTP) buffer, pH 7.5, 0.5% BSA (diluted in BTP buffer), 1 mM sodium pyrophosphate, 20 μM all-trans retinol (in ethanol), and 6 μM apo-CRALBP. The test compounds (2 μl) (final 1/15 dilution of serial dilution stocks) were added to the above reaction mixture to which RPE microsomes were added. The same volume of ethanol was added to the control reaction (absence of test compound). Bovine RPE microsomes (9 μl) (see above) were then added, and the mixtures transferred to 37° C. to initiate the reaction (total volume=150 μl). […]

Data set [1] deals with retinoid nuclear receptors (RAR and RxR). As to the kind of experiment: Retinoid nuclear receptor activity.

Counter-ions that a name gives are not always drawn.

Consider `Cc1cccc(C)c1CCc1cccc(CCCN)c1` (as salt: hydrochloride) [Example 1, 3-(3-(2,6-dimethylphenethyl)phenyl)propan-1-amine], for which the melting point (usually the temperature of the solid-liquid transition) fell in the range of 106 to 108 °C.

For the compound `Cc1cccc(C)c1CCc1cccc(CCCN)c1` [Example 1, 3-(3-(2,6-dimethylphenethyl)phenyl)propan-1-amine], the 50% inhibitory concentration (IC50) (usually the concentration needed to halve the response being measured) at visual cycle isomerase was 1 to 10 µM.

Consider `CCC(O)(CC)CCc1cccc(CCCN)c1` [Example 2, 1-(3-(3-aminopropyl)phenyl)-3-ethylpentan-3-ol], for which the 50% inhibitory concentration (IC50) at visual cycle isomerase is not above 1 µM.

Take `CC(C)(O)CCc1cccc(CCCN)c1` [Example 4, 4-(3-(3-Aminopropyl)phenyl)-2-methylbutan-2-ol]: on visual cycle isomerase, the concentration for half-maximal inhibition (IC50) fell in the range of 1 to 10 µM.

Take `COCCCc1cccc(CCCN)c1` [Example 5, 3-(3-(3-Methoxypropyl)phenyl)propan-1-amine]: the concentration for half-maximal inhibition (IC50) on visual cycle isomerase lay in the range of 1 to 10 µM.

With `NCCCc1cccc(CCCO)c1` [Example 6, 3-(3-(3-aminopropyl)phenyl)propan-1-ol], the half-inhibitory concentration (IC50) against visual cycle isomerase lay in the range of 10 to 100 µM.

At visual cycle isomerase, `CCCC(O)CCc1cccc(CCCN)c1` (stereo not shown) [Example 8, 1-(3-(3-aminopropyl)phenyl)hexan-3-ol] returned a half-maximal inhibitory concentration (IC50) of 1 to 10 µM.

In turn, `NCCOc1cccc(CCCCCCO)c1` [Example 13, 6-(3-(2-aminoethoxy)phenyl)hexan-1-ol] gave a 50% inhibitory concentration (IC50) on visual cycle isomerase not above 1 µM.

Turning to `NCCOc1cccc(CCCC2CCCC2)c1` [Example 14, 2-(3-(3-cyclopentylpropyl)phenoxy)ethanamine], the IC50 against visual cycle isomerase is not above 1 µM.

Regarding `NCCC(O)c1cccc(CCCc2ccccc2)c1` (stereo not shown) [Example 18, 3-amino-1-(3-(3-phenylpropyl)phenyl)propan-1-ol], the IC50 against visual cycle isomerase is not above 1 µM.

Consider `NCCCc1cccc(CCc2ccc3ccccc3c2)c1` [Example 21, 3-(3-(2-(naphthalen-2-yl)ethyl)phenyl)propan-1-amine], for which the IC50 at visual cycle isomerase was 10 to 100 µM.

In the case of `NCCCc1cccc(CCc2ccccc2)c1` [Example 22, 3-(3-phenethylphenyl)propan-1-amine], the half-maximal inhibitory concentration (IC50) at visual cycle isomerase was 1 to 10 µM.

At visual cycle isomerase, `NCCCc1cccc(CCCCO)c1` [Example 23, 4-(3-(3-aminopropyl)phenyl)butan-1-ol] returned an IC50 of 10 to 100 µM.

`NCCCc1cccc(CCC2CCCC2)c1` [Example 24, 3-(3-(2-cyclopentylethyl)phenyl)propan-1-amine] had a half-maximal inhibitory concentration (IC50) at visual cycle isomerase not above 1 µM.

With `NCCCc1cccc(CCC2CCCCC2)c1` [Example 25, 3-(3-(2-cyclohexylethyl)phenyl)propan-1-amine], the concentration for half-maximal inhibition (IC50) against visual cycle isomerase is not above 1 µM.

Compound `NCCCc1cccc(CCCc2ccccc2)c1` [Example 26, 3-(3-(3-phenylpropyl)phenyl)propan-1-amine] had an IC50 on visual cycle isomerase not above 1 µM.

Turning to `CCCCCCc1cccc(CCCN)c1` [Example 28, 3-(3-hexylphenyl)propan-1-amine], at visual cycle isomerase, the half-inhibitory concentration (IC50) was not above 1 µM.

Compound `NCCCc1cccc(CCCCCCO)c1` [Example 30, 6-(3-(3-aminopropyl)phenyl)hexan-1-ol] returned a concentration for half-maximal inhibition (IC50) against visual cycle isomerase not above 1 µM.

`Cc1ccccc1CCc1cccc(CCCN)c1` [Example 31, 3-(3-(2-methylphenethyl)phenyl)propan-1-amine]: on visual cycle isomerase, the concentration for half-maximal inhibition (IC50) was in the range of 1 to 10 µM.

Turning to `NCCCc1cccc(CCc2cccc(-c3ccccc3)c2)c1` [Example 32, 3-(3-(2-(Biphenyl-3-yl)ethyl)phenyl)propan-1-amine], the IC50 against visual cycle isomerase fell in the range of 10 to 100 µM.

In the case of `COCCCCCCc1cccc(CCCN)c1` [Example 33, 3-(3-(6-methoxyhexyl)phenyl)propan-1-amine], the half-maximal inhibitory concentration (IC50) at visual cycle isomerase was not above 1 µM.

`CCCCC(CCCC)c1cccc(CCCN)c1` [Example 34] registered an IC50 against visual cycle isomerase of 1 to 10 µM.

On visual cycle isomerase, `NCCOc1cccc(CCc2cccnc2)c1` [Example 36, 2-(3-(2-(pyridin-3-yl)ethyl)phenoxy)ethanamine] yielded an IC50 of 1 to 10 µM.

`NCCOc1cccc(CCc2ccccn2)c1` [Example 37, 2-(3-(2-(pyridin-2-yl)ethyl)phenoxy)ethanamine] showed an IC50 against visual cycle isomerase of 1 to 10 µM.

Turning to `NCCOc1cccc(CCc2cccs2)c1` [Example 38, 2-(3-(2-(thiophen-2-yl)ethyl)phenoxy)ethanamine], on visual cycle isomerase, the IC50 was not above 1 µM.

With `Cc1cccc(C)c1NC(=O)c1cccc(CCCN)c1` [Example 166, 3-(3-aminopropyl)-N-(2,6-dimethylphenyl)benzamide], the IC50 against visual cycle isomerase was 100 to 1000 µM.

For `C/C(=C\c1ccc(C(=O)O)cc1)c1ccc2c(c1)C(C)(C)CCC2(C)C` [TTNPB, E-4-[2-(5,6,7,8-tetrahydro-5,5,8,8-tetramethyl-2-naphthylenyl)-1-propenyl]benzoic acid, reference compound], in data set [1], the “effects on retinoid nuclear receptors (RAR and RxR)” value is recorded as “activated”.

On to `CC1=C(/C=C/C(C)=C/C=C/C(C)=C/C(=O)O)C(C)(C)CCC1` [at-RA, All-trans-retinoic acid, reference compound], for which the “effects on retinoid nuclear receptors (RAR and RxR)” value in data set [1] is listed as “activated”.

These data come from patent US8450527B2, “Amine derivative compounds for treating ophthalmic diseases and disorders” (Acucela Inc., priority 2007, dated 2013).
